Test results reported in the supplement of paper PMC11208160.

Assay: recombinant UMI read abundance after kanamycin selection (control-corrected) (log10(CPM+1)); higher = more efficient recombination; extreme values may be limits of the assay; sequences stand for … in AGTGCAGAGAAAATCGGCCAGTTTTCTCTGCCTGCAGTCCGCATGCCGTGGGACCCCTTGGGTTCTAACCTGTTGCCTAGATTTATGCAGCGGACTGCCTTTCTCCCAAAGTGATAAACCGG…AGGTTGGTTTCACT; site = the 11-nt donor
Outline: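 Values, expressed as log10(CPM+1), derive from recombinant UMI counts converted to CPM, averaged across replicates and scaled by control-derived factors. Plating was with IPTG (0.07 mM) plus kanamycin or unselected, two replicates each. The screen pooled donor and donor-binding-loop pairs for the IS621 bridge recombinase in Escherichia coli.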
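Note: IS621 bridge recombinase in Escherichia coli cells against a fixed T5 target plasmid.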

GGTCCAACATGGACCGGTTTTCCCGGTAATCCGTATTTGTA (site GGTCCATCTTA)
recombinant UMI read abundance (log10): 0.583

GGTCCAACATGGACCGGTTTTCCCGGTAATCCGTATTTGTA (site GGTCCCACTTA)
recombinant UMI read abundance (log10): 0.00585

GGTCCAACATGGACCGGTTTTCCCGGTAATCCGTATTTGTA (site GGTCCGACTTA)
recombinant UMI read abundance (log10): 0.0188

GGTCCAACATGGACCGGTTTTCCCGGTAATCCGTATTTGTA (site GGTCCTACTTA)
recombinant UMI read abundance (log10): 0.00929

GGTCCAACATGGACCGGTTTTCCCGGTAATCCGTATTTGTA (site GGTCGAACTTA)
recombinant UMI read abundance (log10): 0.0172

GGTCCAACATGGACCGGTTTTCCCGGTAATCCGTATTTGTA (site GGTCTAACTTA)
recombinant UMI read abundance (log10): 0.00385

GGTCCAACATGGACCGGTTTTCCCGGTAATCCGTATTTGTA (site GGTGCAACTTA)
recombinant UMI read abundance (log10): 0.0122

GGTCCAACATGGACCGGTTTTCCCGGTAATCCGTATTTGTA (site GGTTCAACTTA)
recombinant UMI read abundance (log10): 0.0111

GGTCCAACATGGACCGGTTTTCCCGGTAATCCGTATTTGTA (site GTTCCAACTTA)
recombinant UMI read abundance (log10): 0.0101

GGTCCAACATGGACCGGTTTTCCCGGTAATCCGTATTTGTA (site TGTCCAACTTA)
recombinant UMI read abundance (log10): 0.00249

GGTCCAACATGGACCGGTTTTCCCGGTAATCCGTATTTGTG (site GGTCCAACTAA)
recombinant UMI read abundance (log10): 0.00832

GGTCCAACATGGACCGGTTTTCCCGGTAATCCGTATTTGTG (site GGTCCAACTCA)
recombinant UMI read abundance (log10): 0.00564

GGTCCAACATGGACCGGTTTTCCCGGTAATCCGTATTTGTG (site GGTCCAACTGA)
recombinant UMI read abundance (log10): 0

GGTCCAACATGGACCGGTTTTCCCGGTAATCCGTATTTGTG (site GGTCCAACTTA)
recombinant UMI read abundance (log10): 0.00906

GGTCCCTCATGGACCGGTTTTCCCGGTAATCCGTATTTGTG (site GGTCCCTCTCA)
recombinant UMI read abundance (log10): 0.413

GGTGAACCATGGACCGGTTTTCCCGGTAATCCGTATTTGGG (site GGTGAACCTCC)
recombinant UMI read abundance (log10): 0

GGTGAAGCATGGACCGGTTTTCCCGGTAATCCGTATTTGAG (site GGTGAAGCTCT)
recombinant UMI read abundance (log10): 1.82

GGTGACTCATGGACCGGTTTTCCCGGTAATCCGTATTTGAC (site GGTGACTCTGT)
recombinant UMI read abundance (log10): 2.47

GGTGAGGCATGGACCGGTTTTCCCGGTAATCCGTATTTGGT (site GGTGAGGCTAC)
recombinant UMI read abundance (log10): 1.1

GGTGAGTCATGGACCGGTTTTCCCGGTAATCCGTATTTGGC (site GGTGAGTCTGC)
recombinant UMI read abundance (log10): 2.23

GGTGCAACATGGACCGGTTTTCCCGGTAATCCGTATTTGTA (site GGTACAACTTA)
recombinant UMI read abundance (log10): 0.01

GGTGCAACATGGACCGGTTTTCCCGGTAATCCGTATTTGTA (site GGTCCAACTTA)
recombinant UMI read abundance (log10): 0.00521

GGTGCAACATGGACCGGTTTTCCCGGTAATCCGTATTTGTA (site GGTGCAACTTA)
recombinant UMI read abundance (log10): 0.221

GGTGCAACATGGACCGGTTTTCCCGGTAATCCGTATTTGTA (site GGTTCAACTTA)
recombinant UMI read abundance (log10): 0.00709

GGTGCGTCATGGACCGGTTTTCCCGGTAATCCGTATTTGGA (site GGTGCGTCTTC)
recombinant UMI read abundance (log10): 0.59

GGTGTTCCATGGACCGGTTTTCCCGGTAATCCGTATTTGGT (site GATGTTCCTAC)
recombinant UMI read abundance (log10): 0.0226

GGTGTTCCATGGACCGGTTTTCCCGGTAATCCGTATTTGGT (site GCTGTTCCTAC)
recombinant UMI read abundance (log10): 0.0204

GGTGTTCCATGGACCGGTTTTCCCGGTAATCCGTATTTGGT (site GGTGTTCCTAC)
recombinant UMI read abundance (log10): 0.0141

GGTGTTCCATGGACCGGTTTTCCCGGTAATCCGTATTTGGT (site GTTGTTCCTAC)
recombinant UMI read abundance (log10): 0

GGTTACCCATGGACCGGTTTTCCCGGTAATCCGTATTTGTC (site GGTTACCCTGA)
recombinant UMI read abundance (log10): 0.664

GGTTCCCCATGGACCGGTTTTCCCGGTAATCCGTATTTGTA (site AGTTCCCCTTA)
recombinant UMI read abundance (log10): 0.0122

GGTTCCCCATGGACCGGTTTTCCCGGTAATCCGTATTTGTA (site CGTTCCCCTTA)
recombinant UMI read abundance (log10): 0.00861

GGTTCCCCATGGACCGGTTTTCCCGGTAATCCGTATTTGTA (site GGTTCCCCTTA)
recombinant UMI read abundance (log10): 0.0107

GGTTCCCCATGGACCGGTTTTCCCGGTAATCCGTATTTGTA (site TGTTCCCCTTA)
recombinant UMI read abundance (log10): 0.0103

GGTTCCGCATGGACCGGTTTTCCCGGTAATCCGTATTTGAA (site GGTTCCGCTTT)
recombinant UMI read abundance (log10): 0

GGTTCTACATGGACCGGTTTTCCCGGTAATCCGTATTTGAG (site GGTTCTACTCT)
recombinant UMI read abundance (log10): 0.316

GGTTGGTCATGGACCGGTTTTCCCGGTAATCCGTATTTGCA (site GGTTGGTCTTG)
recombinant UMI read abundance (log10): 1.59

GGTTTGTCATGGACCGGTTTTCCCGGTAATCCGTATTTGTG (site GGTTTGTCTCA)
recombinant UMI read abundance (log10): 1.21

GTAAAATCATGGACCGGTTTTCCCGGTAATCCGTATTTGCA (site GTAAAATCTTG)
recombinant UMI read abundance (log10): 1.81

GTAAAGACATGGACCGGTTTTCCCGGTAATCCGTATTTGGG (site GTAAAGACTCC)
recombinant UMI read abundance (log10): 0.889

GTAACGCCATGGACCGGTTTTCCCGGTAATCCGTATTTGTC (site GTAACGCCTGA)
recombinant UMI read abundance (log10): 0

GTAAGTTCATGGACCGGTTTTCCCGGTAATCCGTATTTGTC (site GTAAGTTCTGA)
recombinant UMI read abundance (log10): 2.1

GTACAAGCATGGACCGGTTTTCCCGGTAATCCGTATTTGCA (site GTACAAGCTTG)
recombinant UMI read abundance (log10): 2.69

GTACCCACATGGACCGGTTTTCCCGGTAATCCGTATTTGTC (site GTACCCACTGA)
recombinant UMI read abundance (log10): 2.64

GTACCTTCATGGACCGGTTTTCCCGGTAATCCGTATTTGAC (site GTACCTTCTGT)
recombinant UMI read abundance (log10): 2.06

GTACGCACATGGACCGGTTTTCCCGGTAATCCGTATTTGTA (site GTAAGCACTTA)
recombinant UMI read abundance (log10): 0.0204

GTACGCACATGGACCGGTTTTCCCGGTAATCCGTATTTGTA (site GTACGCACTTA)
recombinant UMI read abundance (log10): 2.17

GTACGCACATGGACCGGTTTTCCCGGTAATCCGTATTTGTA (site GTAGGCACTTA)
recombinant UMI read abundance (log10): 0.0167

GTACGCACATGGACCGGTTTTCCCGGTAATCCGTATTTGTA (site GTATGCACTTA)
recombinant UMI read abundance (log10): 0.266

GTACTTCCATGGACCGGTTTTCCCGGTAATCCGTATTTGCT (site GTACTTCCTAG)
recombinant UMI read abundance (log10): 1.14

GTAGCCGCATGGACCGGTTTTCCCGGTAATCCGTATTTGCG (site GTAGACGCTCG)
recombinant UMI read abundance (log10): 0.446

GTAGCCGCATGGACCGGTTTTCCCGGTAATCCGTATTTGCG (site GTAGCCGCTCG)
recombinant UMI read abundance (log10): 2.08

GTAGCCGCATGGACCGGTTTTCCCGGTAATCCGTATTTGCG (site GTAGGCGCTCG)
recombinant UMI read abundance (log10): 0.0284

GTAGCCGCATGGACCGGTTTTCCCGGTAATCCGTATTTGCG (site GTAGTCGCTCG)
recombinant UMI read abundance (log10): 0.781

GTAGCCTCATGGACCGGTTTTCCCGGTAATCCGTATTTGTT (site GTAGCCTCTAA)
recombinant UMI read abundance (log10): 2.42

GTAGCGACATGGACCGGTTTTCCCGGTAATCCGTATTTGTC (site GTAGCGACTGA)
recombinant UMI read abundance (log10): 2.92

GTAGCTACATGGACCGGTTTTCCCGGTAATCCGTATTTGAC (site GTAGATACTGT)
recombinant UMI read abundance (log10): 1.02

GTAGCTACATGGACCGGTTTTCCCGGTAATCCGTATTTGAC (site GTAGCTACTGT)
recombinant UMI read abundance (log10): 2.4

GTAGCTACATGGACCGGTTTTCCCGGTAATCCGTATTTGAC (site GTAGGTACTGT)
recombinant UMI read abundance (log10): 0

GTAGCTACATGGACCGGTTTTCCCGGTAATCCGTATTTGAC (site GTAGTTACTGT)
recombinant UMI read abundance (log10): 1.7

GTAGGCACATGGACCGGTTTTCCCGGTAATCCGTATTTGTA (site GTAAGCACTTA)
recombinant UMI read abundance (log10): 1.08

GTAGGCACATGGACCGGTTTTCCCGGTAATCCGTATTTGTA (site GTACGCACTTA)
recombinant UMI read abundance (log10): 0.279

GTAGGCACATGGACCGGTTTTCCCGGTAATCCGTATTTGTA (site GTAGGCACTTA)
recombinant UMI read abundance (log10): 1.29

GTAGGCACATGGACCGGTTTTCCCGGTAATCCGTATTTGTA (site GTATGCACTTA)
recombinant UMI read abundance (log10): 0.019

GTAGGCTCATGGACCGGTTTTCCCGGTAATCCGTATTTGCA (site GTAGGCTCTTG)
recombinant UMI read abundance (log10): 2.94

GTAGGTACATGGACCGGTTTTCCCGGTAATCCGTATTTGAA (site GTAGGTACTAT)
recombinant UMI read abundance (log10): 0

GTAGGTACATGGACCGGTTTTCCCGGTAATCCGTATTTGAA (site GTAGGTACTCT)
recombinant UMI read abundance (log10): 0.518

GTAGGTACATGGACCGGTTTTCCCGGTAATCCGTATTTGAA (site GTAGGTACTGT)
recombinant UMI read abundance (log10): 0.479

GTAGGTACATGGACCGGTTTTCCCGGTAATCCGTATTTGAA (site GTAGGTACTTT)
recombinant UMI read abundance (log10): 1.75

GTAGGTACATGGACCGGTTTTCCCGGTAATCCGTATTTGCC (site GTAGGTACTGA)
recombinant UMI read abundance (log10): 0.73

GTAGGTACATGGACCGGTTTTCCCGGTAATCCGTATTTGCC (site GTAGGTACTGC)
recombinant UMI read abundance (log10): 0.00606

GTAGGTACATGGACCGGTTTTCCCGGTAATCCGTATTTGCC (site GTAGGTACTGG)
recombinant UMI read abundance (log10): 0.956

GTAGGTACATGGACCGGTTTTCCCGGTAATCCGTATTTGCC (site GTAGGTACTGT)
recombinant UMI read abundance (log10): 0.441

GTAGGTGCATGGACCGGTTTTCCCGGTAATCCGTATTTGAC (site GTAGGTACTGT)
recombinant UMI read abundance (log10): 2.25

GTAGGTGCATGGACCGGTTTTCCCGGTAATCCGTATTTGAC (site GTAGGTCCTGT)
recombinant UMI read abundance (log10): 0.618
